From US4400534A, “Analgesic and anti-inflammatory agents” (Sankyo Company, Limited, priority 1980, dated 1983)

What was measured:
[1] = target: T1, microsome prostaglandin-biosynthesis enzyme (Bos taurus, UniProt O62664); experiment: Inhibition of PG-biosynthesis enzyme activity, bovine seminal vesicle microsome test; format: biochemical; conditions: for IC50: bovine seminal vesicle microsome 1mg/ml, 14C-arachidonic acid 10 μM, pH 7.6, 30° C., 10 minutes, prostaglandin E2 measured, read-out: Inhibition of PG-biosynthesis enzyme activity, Bovine seminal vesicle microsome I50
T1 construct: microsome prostaglandin-biosynthesis enzyme (1mg/ml) fractionated from bovine seminal vesicles; from tissue; host or cells: bovine seminal vesicles (microsomes)
T1 sequence (O62664 25-600): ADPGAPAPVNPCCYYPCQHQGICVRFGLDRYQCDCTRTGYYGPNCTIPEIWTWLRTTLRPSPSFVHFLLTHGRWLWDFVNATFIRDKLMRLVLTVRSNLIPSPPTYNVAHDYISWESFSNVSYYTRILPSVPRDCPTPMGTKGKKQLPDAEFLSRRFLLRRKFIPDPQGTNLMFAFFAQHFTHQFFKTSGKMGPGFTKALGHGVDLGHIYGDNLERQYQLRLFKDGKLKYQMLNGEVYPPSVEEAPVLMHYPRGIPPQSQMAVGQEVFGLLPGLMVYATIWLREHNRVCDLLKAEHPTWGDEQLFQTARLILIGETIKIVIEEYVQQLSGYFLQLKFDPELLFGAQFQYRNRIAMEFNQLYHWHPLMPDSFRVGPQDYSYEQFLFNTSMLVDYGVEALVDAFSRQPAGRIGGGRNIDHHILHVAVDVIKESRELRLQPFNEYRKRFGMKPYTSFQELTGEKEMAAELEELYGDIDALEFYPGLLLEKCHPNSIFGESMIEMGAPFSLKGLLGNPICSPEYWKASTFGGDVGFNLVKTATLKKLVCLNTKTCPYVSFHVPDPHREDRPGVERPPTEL
Description: Microsome tests were conducted according to the methods of E Takeguchi, E Kohno, C J Sih: Biochemistry 10, 2372 (1971), "Preparation of bovine seminal vesicle" and of R J Flower, H S Cheung, D W Cushman: Prostaglandins 4, 325 (1973), "Pharmacological action system."
The compounds under test were added to a system comprising microsome prostaglandin-biosynthesis enzyme (1mg/ml) fractionated from bovine seminal vesicles, glutathione (2 mM), epinephrine (1 mM) and trisaminomethane-hydrochloric acid buffer solution pH 7.6 (0.1 M). The mixture was left to stand at 30° C. for 5 minutes and commercially available ^14 C-arachidonic acid (10 μM, 50-60 nCi) was added. The resultant solution was maintained at 30° C. for 10 minutes and reaction then stopped by addition of 0.1 N hydrochloric acid. After extraction of the reaction mixture, the extract was separated by thin layer chromatography on silica gel to give the prostaglandin which was produced. The main product, prostaglandin E2, was measured using a liquid scintilation counter in accordance with the method of L Levine et al: Journal of Biological Chemistry (246, 6782 (1971). The inhibitory activities were assayed by the radioactivity ratio of the sample to a blank.

[2] = system: prostaglandin-biosynthesis in 3T6 cells; experiment: Inhibition of prostaglandin-biosynthesis in cultured cells (3T6 cells from mouse fibroblasts); format: cell-based; conditions: for IC50: Mus musculus, Fibroblast, 3T6 cells, 2 hours contact, then arachidonic acid 5 μg/ml, 1 hour, prostaglandin E2 by radioimmunoassay, read-out: Inhibition of PG-biosynthesis enzyme activity, Culture cells I50
Description: 3T6 cells from mouse fibroblasts were used as the cultured cells.
About six hundred thousand 3T6 cells were cultured in a plastics Petri dish (35 mm inner diameter) at 37° C. for 48 hours using a minimum-requirement medium, Darbecco (Trade Mark). After culturing, the cells were separated, washed, and then contacted with the same medium but containing the compound under test. After contacting for 2 hours, the medium was separated off and the cells washed. The medium containing 5 μg/ml of arachidonic acid and the test compound were added. Culturing was allowed to continue for 1 hour, and then the concentration of the prostaglandin E2 in the medium was assayed by radioimmunoassay.

IC50 [1]	inhibition of prostaglandin-biosynthesis enzyme activity (in words) [1]	SMILES	IC50 [2]	activity compared to indomethacin (in words) ([2]; cultured cells test, called in vivo)
13 µM	–	C[C@H](C(=O)O)c1ccc(CC2CCCC2O)cc1 (stereo partly shown) [II + III]	–	–
–	–	COc1ccc2c(c1)c(CC(=O)O)c(C)n2C(=O)c1ccc(Cl)cc1 [IM, indomethacin, reference compound]	0.34 µM	–
72 µM	–	C[C@H](C(=O)O)c1ccc(CC2CCCC2O)cc1 (stereo partly drawn) [I, (2S)-2-[4-(2-hydroxycyclopentan-1-ylmethyl)phenyl]propionic acid]	–	–
9 µM	more active than the compound (I)	C[C@H](C(=O)O)c1ccc(C[C@H]2CCC[C@@H]2O)cc1 [II, (2S)-2-{4-[(1R,2S)-2-hydroxycyclopentan-1-ylmethyl]phenyl}propionic acid]	0.25 µM	better activity in the compound (II) compared to indomethacin
